# Results published in patent publication US20090311217A1, “3-SUBSTITUTED-1H-INDOLE COMPOUNDS, THEIR USE AS MTOR KINASE AND PI3 KINASE INHIBITORS, AND THEIR SYNTHESES” (priority 2008, published 2009).
# Experiments:
# [1] = molecular target: PI3K-alpha (Homo sapiens, UniProt P42336); experiment: PI3K-alpha fluorescence polarization assay; format: biochemical; conditions: read-out: PI3Kα Avg. IC50
# [2] = molecular target: PI3K-gamma (Homo sapiens, UniProt P48736); experiment: PI3K-gamma fluorescence polarization assay; format: biochemical; conditions: PI3Kγ Avg. IC50
# Protocol: PI3K-Alpha, PI3K-Beta, PI3K-Gamma, and PI3K-delta Fluorescence Polarization Assay Protocols
# PI3-Kinase reactions were performed in 5 mM HEPES, pH 7, 2.5 mM MgCl2, and 25 μM ATP, with diC8-PI(4,5)P2 (Echelon, Salt Lake City Utah) as substrate. Nunc 384-well black polypropylene fluorescent plates were used for PI3K assays. Reactions were quenched by the addition of EDTA to a final concentration of 10 mM. Final reaction volumes were 10 μl. For evaluation of PI3K inhibitors, 5 ng of enzyme (PI3K-alpha, beta, gamma, or delta) and 2.5 μM of substrate was used per […] reaction volume, and inhibitor concentrations ranged from 100 μM to 20 μM; the final level of DMSO in reactions never exceeded 2%. Reactions were allowed to proceed for one hour at 25° C. After 1 hour, GST-tagged GRP1 (general receptor for phosphoinositides) PH domain fusion protein was added to a final concentration of 100 nM, and BODIPY-TMRI(1,3,4,5)P4 (Echelon) was also added to a final concentration of 5 nM. Final sample volumes were 25 μl with a final DMSO concentration of 0.8%. Assay Plates were read on Perkin-Elmer Envision plate readers with appropriate filters for Tamra [BODIPY-TMRI(1,3,4,5)P4]. Data obtained were used to calculate enzymatic activity and enzyme inhibition by inhibitor compounds.
# Sequence of PI3K-gamma (P48736 whole entry, species assumed): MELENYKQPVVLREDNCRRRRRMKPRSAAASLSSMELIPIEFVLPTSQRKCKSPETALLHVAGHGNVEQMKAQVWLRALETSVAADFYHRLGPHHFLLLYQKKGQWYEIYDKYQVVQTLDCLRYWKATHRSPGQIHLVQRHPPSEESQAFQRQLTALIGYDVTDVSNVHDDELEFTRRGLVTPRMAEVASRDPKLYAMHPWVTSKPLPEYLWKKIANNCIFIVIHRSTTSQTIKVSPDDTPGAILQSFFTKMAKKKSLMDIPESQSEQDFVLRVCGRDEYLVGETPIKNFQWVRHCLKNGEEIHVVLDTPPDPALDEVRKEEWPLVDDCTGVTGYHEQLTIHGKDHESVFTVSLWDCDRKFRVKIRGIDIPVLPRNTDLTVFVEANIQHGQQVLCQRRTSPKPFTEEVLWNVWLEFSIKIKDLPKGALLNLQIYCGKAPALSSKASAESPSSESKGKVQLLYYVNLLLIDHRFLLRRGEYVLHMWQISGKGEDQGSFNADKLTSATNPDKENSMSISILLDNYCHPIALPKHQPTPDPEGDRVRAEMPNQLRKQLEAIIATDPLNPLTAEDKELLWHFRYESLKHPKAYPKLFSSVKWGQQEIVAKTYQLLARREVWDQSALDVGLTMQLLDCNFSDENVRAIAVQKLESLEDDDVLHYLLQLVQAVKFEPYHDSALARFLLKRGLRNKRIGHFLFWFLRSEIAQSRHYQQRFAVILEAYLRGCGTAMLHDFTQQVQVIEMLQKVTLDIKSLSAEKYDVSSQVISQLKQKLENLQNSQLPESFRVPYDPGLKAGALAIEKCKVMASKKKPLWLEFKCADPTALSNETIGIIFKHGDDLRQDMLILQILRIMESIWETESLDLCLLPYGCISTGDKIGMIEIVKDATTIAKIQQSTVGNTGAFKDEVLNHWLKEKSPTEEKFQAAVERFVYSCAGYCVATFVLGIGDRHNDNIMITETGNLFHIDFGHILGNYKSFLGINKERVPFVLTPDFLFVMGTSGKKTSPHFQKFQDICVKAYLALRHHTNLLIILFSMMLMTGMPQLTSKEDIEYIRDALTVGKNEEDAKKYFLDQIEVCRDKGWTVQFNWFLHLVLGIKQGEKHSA
# Sequence of PI3K-alpha (P42336 whole entry, species assumed): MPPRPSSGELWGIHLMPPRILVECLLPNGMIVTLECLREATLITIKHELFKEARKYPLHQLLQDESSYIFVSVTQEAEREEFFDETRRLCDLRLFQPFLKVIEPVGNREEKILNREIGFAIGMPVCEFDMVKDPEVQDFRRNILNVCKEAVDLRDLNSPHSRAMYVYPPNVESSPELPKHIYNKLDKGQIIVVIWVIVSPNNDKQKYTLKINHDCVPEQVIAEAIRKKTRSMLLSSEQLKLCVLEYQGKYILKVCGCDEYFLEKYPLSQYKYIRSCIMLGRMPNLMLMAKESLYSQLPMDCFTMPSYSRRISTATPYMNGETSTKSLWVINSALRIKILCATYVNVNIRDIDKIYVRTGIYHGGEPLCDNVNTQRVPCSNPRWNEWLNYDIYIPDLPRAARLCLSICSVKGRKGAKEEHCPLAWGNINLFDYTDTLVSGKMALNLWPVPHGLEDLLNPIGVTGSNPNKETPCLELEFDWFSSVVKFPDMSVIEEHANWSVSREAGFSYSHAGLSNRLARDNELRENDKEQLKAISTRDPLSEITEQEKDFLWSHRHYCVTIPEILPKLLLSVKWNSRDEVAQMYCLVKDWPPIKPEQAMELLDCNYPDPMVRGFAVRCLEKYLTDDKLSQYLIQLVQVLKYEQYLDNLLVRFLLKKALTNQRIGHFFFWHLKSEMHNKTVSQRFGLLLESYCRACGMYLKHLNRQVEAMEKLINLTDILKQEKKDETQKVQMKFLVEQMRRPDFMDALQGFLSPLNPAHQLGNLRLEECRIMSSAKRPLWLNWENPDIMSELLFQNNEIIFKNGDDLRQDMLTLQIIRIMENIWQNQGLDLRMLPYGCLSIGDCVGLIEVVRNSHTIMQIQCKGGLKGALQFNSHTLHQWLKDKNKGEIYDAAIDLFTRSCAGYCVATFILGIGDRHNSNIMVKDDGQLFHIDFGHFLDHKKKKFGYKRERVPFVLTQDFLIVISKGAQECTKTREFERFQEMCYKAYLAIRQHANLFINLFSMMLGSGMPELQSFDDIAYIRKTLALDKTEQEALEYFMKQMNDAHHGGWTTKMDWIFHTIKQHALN
# Sequence of PI3K-alpha (P27986 whole entry partner, species assumed): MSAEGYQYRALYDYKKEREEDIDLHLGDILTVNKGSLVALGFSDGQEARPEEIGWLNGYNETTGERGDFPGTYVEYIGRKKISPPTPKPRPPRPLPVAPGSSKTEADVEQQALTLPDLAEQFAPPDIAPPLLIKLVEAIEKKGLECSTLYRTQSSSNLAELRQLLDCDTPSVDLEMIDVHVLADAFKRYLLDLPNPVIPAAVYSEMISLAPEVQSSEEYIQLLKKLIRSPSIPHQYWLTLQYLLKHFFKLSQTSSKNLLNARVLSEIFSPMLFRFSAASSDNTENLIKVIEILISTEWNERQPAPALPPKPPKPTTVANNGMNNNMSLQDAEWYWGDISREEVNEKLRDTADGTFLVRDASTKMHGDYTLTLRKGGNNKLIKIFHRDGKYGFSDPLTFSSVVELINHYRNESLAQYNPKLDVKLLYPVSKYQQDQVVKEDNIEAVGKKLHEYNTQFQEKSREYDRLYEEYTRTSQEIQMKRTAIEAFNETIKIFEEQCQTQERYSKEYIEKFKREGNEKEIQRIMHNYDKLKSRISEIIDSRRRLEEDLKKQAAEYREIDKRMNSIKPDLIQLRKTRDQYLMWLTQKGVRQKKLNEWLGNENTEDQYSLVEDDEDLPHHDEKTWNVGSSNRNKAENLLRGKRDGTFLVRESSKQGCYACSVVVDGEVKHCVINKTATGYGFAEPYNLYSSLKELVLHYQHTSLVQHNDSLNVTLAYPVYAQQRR
Structure (SMILES),IC50 [1] [nM],IC50 [2] [nM]
"COc1cc(-c2cccnc2)c2[nH]cc(/C=C3\Oc4cc(O)ccc4C3=O)c2c1 [Compound 480, (2Z)-6-hydroxy-2-[(5-methoxy-7-pyridin-3-yl-1H-indol-3-yl)methylene]-1-benzofuran-3(2H)-one]",81.5,3510
"COc1cccc2c1O/C(=C\c1c[nH]c3ccc(Br)cc13)C2=O [Compound 481, (2Z)-2-[(5-bromo-1H-indol-3-yl)methylene]-7-methoxy-1-benzofuran-3(2H)-one]",> 10000,> 10000
"COc1ccc2[nH]cc(C=C3Oc4c(O)cccc4C3=O)c2c1 [Compound 482, 7-hydroxy-2-[(5-methoxy-1H-indol-3-yl)methylene]-1-benzofuran-3(2H)-one]",> 10000,> 10000
"COc1ccc2[nH]cc(C=C3Oc4c(OC)cccc4C3=O)c2c1 [Compound 483, 7-methoxy-2-[(5-methoxy-1H-indol-3-yl)methylene]-1-benzofuran-3(2H)-one]",9860,5220
"COc1ccc2[nH]cc(/C=C3\Oc4ccc(NC(=O)Nc5cccnc5)cc4C3=O)c2c1 [Compound 484, 1-{(2Z)-2-[(5-methoxy-1H-indol-3-yl)methylene]-3-oxo-2,3-dihydro-1-benzofuran-5-yl}-3-pyridin-3-ylurea]",1660,> 10000
"COc1ccc2[nH]cc(/C=C3\Oc4ccc(NC(=O)Nc5ccccc5)cc4C3=O)c2c1 [Compound 485, 1-{(2Z)-2-[(5-methoxy-1H-indol-3-yl)methylene]-3-oxo-2,3-dihydro-1-benzofuran-5-yl}-3-phenylurea]",> 10000,> 10000
"COc1ccc2[nH]cc(/C=C3\Oc4ccc(NC(=O)NC(C)C)cc4C3=O)c2c1 [Compound 486, 1-isopropyl-3-{(2Z)-2-[(5-methoxy-1H-indol-3-yl)methylene]-3-oxo-2,3-dihydro-1-benzofuran-5-yl}urea]",1460,1610
"CCCCNC(=O)Nc1ccc2c(c1)C(=O)/C(=C/c1c[nH]c3ccc(OC)cc13)O2 [Compound 487, 1-butyl-3-{(2Z)-2-[(5-methoxy-1H-indol-3-yl)methylene]-3-oxo-2,3-dihydro-1-benzofuran-5-yl}urea]",10200,> 10000
"COc1ccc2[nH]cc(/C=C3\Oc4ccc(NC(=O)NC5CCCCC5)cc4C3=O)c2c1 [Compound 488, 1-cyclohexyl-3-{(2Z)-2-[(5-methoxy-1H-indol-3-yl)methylene]-3-oxo-2,3-dihydro-1-benzofuran-5-yl}urea]",> 10000,> 10000
"CCNC(=O)Nc1ccc2c(c1)C(=O)/C(=C/c1c[nH]c3ccc(OC)cc13)O2 [Compound 489, 1-ethyl-3-{(2Z)-2-[(5-methoxy-1H-indol-3-yl)methylene]-3-oxo-2,3-dihydro-1-benzofuran-5-yl}urea]",6220,> 10000
"COC(=O)NC(=O)Nc1ccc2c(c1)C(=O)/C(=C/c1c[nH]c3ccc(OC)cc13)O2 [Compound 490, methyl ({(2Z)-2-[(5-methoxy-1H-indol-3-yl)methylene]-3-oxo-2,3-dihydro-1-benzofuran-5-yl}carbamoyl)carbamate]",674,> 10000
"COc1ccc(NC(=O)Nc2ccc3c(c2)C(=O)/C(=C/c2c[nH]c4ccc(OC)cc24)O3)cc1 [Compound 491, 1-{(2Z)-2-[(5-methoxy-1H-indol-3-yl)methylene]-3-oxo-2,3-dihydro-1-benzofuran-5-yl}-3-(4-methoxyphenyl)urea]",465,1310
"COc1ccc2[nH]cc(/C=C3\Oc4ccc(NC(=O)Nc5ccc(N(C)C)cc5)cc4C3=O)c2c1 [Compound 492, 1-[4-(dimethylamino)phenyl]-3-{(2Z)-2-[(5-methoxy-1H-indol-3-yl)methylene]-3-oxo-2,3-dihydro-1-benzofuran-5-yl}urea]",656,> 10000
"CCc1c(/C=C2\Oc3cc(O)cc(O)c3C2=O)c2cc(OC)ccc2n1CCCC#N [Compound 493, 4-{3-[(Z)-(4,6-dihydroxy-3-oxo-1-benzofuran-2(3H)-ylidene)methyl]-2-ethyl-5-methoxy-1H-indol-1-yl}butanenitrile]",3,15.5
"COc1ccc2[nH]cc(C=C3Oc4cc(OS(=O)(=O)C(F)(F)F)ccc4C3=O)c2c1 [Compound 494, 2-[(5-methoxy-1H-indol-3-yl)methylene]-3-oxo-2,3-dihydro-1-benzofuran-6-yl trifluoromethanesulfonate]",> 10000,9350
"COc1ccc2[nH]cc(C=C3Oc4cc(C(N)=O)ccc4C3=O)c2c1 [Compound 495, 2-[(5-methoxy-1H-indol-3-yl)methylene]-3-oxo-2,3-dihydro-1-benzofuran-6-carboxamide]",> 10000,> 10000

Structure (SMILES),IC50 [1] [nM],IC50 [2] [nM]
"Cn1cc(/C=C2\Oc3cc(O)cc(O)c3C2=O)c2c(N3CCOCC3)cccc21 [Compound 496, (2Z)-4,6-dihydroxy-2-[(1-methyl-4-morpholin-4-yl-1H-indol-3-yl)methylene]-1-benzofuran-3(2H)-one]",1040,4770
"COc1cccc2c1c(/C=C1\Oc3cc(O)cc(O)c3C1=O)c(-c1ccccc1)n2C [Compound 497, (2Z)-4,6-dihydroxy-2-[(4-methoxy-1-methyl-2-phenyl-1H-indol-3-yl)methylene]-1-benzofuran-3(2H)-one]",963,1210
"COc1cc(-c2cncnc2)c2[nH]cc(/C=C3\Oc4cc(O)ccc4C3=O)c2c1 [Compound 498, (2Z)-6-hydroxy-2-[(5-methoxy-7-pyrimidin-5-yl-1H-indol-3-yl)methylene]-1-benzofuran-3(2H)-one]",63.5,392
"Cn1c(-c2ccccc2)c(/C=C2\Oc3cc(O)cc(O)c3C2=O)c2c([N+](=O)[O-])cccc21 [Compound 499, (2Z)-4,6-dihydroxy-2-[(1-methyl-4-nitro-2-phenyl-1H-indol-3-yl)methylene]-1-benzofuran-3(2H)-one]",342,3560
"COc1cc(-c2cncnc2)c2c(c1)c(/C=C1\Oc3cc(O)ccc3C1=O)cn2CCCC#N [Compound 501, 4-{3-[(Z)-(6-hydroxy-3-oxo-1-benzofuran-2(3H)-ylidene)methyl]-5-methoxy-7-pyrimidin-5-yl-1H-indol-1-yl}butanenitrile]",701,7000
"COc1cc(-c2cccnc2)c2c(c1)c(/C=C1\Oc3cc(O)ccc3C1=O)cn2CCCC#N [Compound 502, 4-{3-[(Z)-(6-hydroxy-3-oxo-1-benzofuran-2(3H)-ylidene)methyl]-5-methoxy-7-pyridin-3-yl-1H-indol-1-yl}butanenitrile]",592,4160
"COc1cc(-c2cncnc2)c2c(c1)c(/C=C1\Oc3cc(O)cc(O)c3C1=O)cn2CCCC#N [Compound 503, 4-{3-[(Z)-(4,6-dihydroxy-3-oxo-1-benzofuran-2(3H)-ylidene)methyl]-5-methoxy-7-pyrimidin-5-yl-1H-indol-1-yl}butanenitrile]",106,811
"COc1ccc2[nH]cc(C=C3Oc4cc(O)cc(-c5ccccc5)c4C3=O)c2c1 [Compound 504, 6-hydroxy-2-[(5-methoxy-1H-indol-3-yl)methylene]-4-phenyl-1-benzofuran-3(2H)-one]",122,541
"COc1ccc2[nH]cc(C=C3Oc4cc(O)cc(Br)c4C3=O)c2c1 [Compound 505, 4-bromo-6-hydroxy-2-[(5-methoxy-1H-indol-3-yl)methylene]-1-benzofuran-3(2H)-one]",120,813
"CCc1cc(O)cc2c1C(=O)C(=Cc1c[nH]c3ccc(OC)cc13)O2 [Compound 506, 4-ethyl-6-hydroxy-2-[(5-methoxy-1H-indol-3-yl)methylene]-1-benzofuran-3(2H)-one]",133,1510
"COc1ccc2c(c1)c(/C=C1\Oc3cc(O)cc(C)c3C1=O)cn2C [Compound 507, (2Z)-6-hydroxy-2-[(5-methoxy-1-methyl-1H-indol-3-yl)methylene]-4-methyl-1-benzofuran-3(2H)-one]",78.5,1540
"COc1ccc2[nH]cc(/C=C3\Oc4cc(C#N)ccc4C3=O)c2c1 [Compound 508, (2Z)-2-[(5-methoxy-1H-indol-3-yl)methylene]-3-oxo-2,3-dihydro-1-benzofuran-6-carbonitrile]",8500,> 10000
"COc1ccc2[nH]cc(/C=C3\Oc4cc(-c5nn[nH]n5)ccc4C3=O)c2c1 [Compound 509, (2Z)-2-[(5-methoxy-1H-indol-3-yl)methylene]-6-(2H-tetrazol-5-yl)-1-benzofuran-3(2H)-one]",484,2470
"COc1ccc2c(c1)c(/C=C1\Oc3cc(O)cc(O)c3C1=O)cn2CCCC#N [Compound 510, 4-{3-[(Z)-(4,6-dihydroxy-3-oxo-1-benzofuran-2(3H)-ylidene)methyl]-5-methoxy-1Hindol-1-yl}butanenitrile]",8,56
"COc1ccc2c(c1)c(/C=C1\Oc3cc(O)ccc3C1=O)cn2CCCC#N [Compound 511, 4-{3-[(Z)-(6-hydroxy-3-oxo-1-benzofuran-2(3H)-ylidene)methyl]-5-methoxy-1Hindol-1-yl}butanenitrile]",21,154
